Six compounds from EP0471296B1, “1-(Pyridinylalkyl)-1H-indoles, indolines and related analogs” (HOECHST-ROUSSEL PHARMACEUTICALS INCORPORATED, priority 1990, dated 1992) can be followed below.

One assay deals with mice. Description: Dark Avoidance Assay (reversal of scopolamine-induced memory deficit). The format is in vivo. To be noted: s.c. The procedure:
In this assay mice are tested for their ability to remember an unpleasant stimulus for a period of 24 hours. A mouse is placed in a chamber that contains a dark compartment; a strong incandescent light drives it to the dark compartment, where an electric shock is administered through metal plates on the floor. The animal is removed from the testing apparatus and tested again, 24 hours later, for the ability to remember the electric shock.
If scopolamine, an anticholinergic that is known to cause memory impairment, is administered before an animal's initial exposure to the test chamber, the animal re-enters the dark compartment shortly after being placed in the test chamber 24 hours later. This effect of scopolamine is blocked by an active test compound, resulting in a greater interval before re-entry into the dark compartment.
The results for an active compound are expressed as the percent of a group of animals in which the effect of scopolamine is blocked, as manifested by an increased interval between being placed in the test chamber and re-entering the dark compartment.

In assay [1] the target is T1, Brain Acetylcholinesterase (Rattus norvegicus, UniProt P37136).
T1 construct: corpora striata dissected free, weighed and homogenized in 19 volumes; from tissue; host or cells: rat corpora striata homogenate (male Wistar rats)
T1 sequence (P37136 32-614): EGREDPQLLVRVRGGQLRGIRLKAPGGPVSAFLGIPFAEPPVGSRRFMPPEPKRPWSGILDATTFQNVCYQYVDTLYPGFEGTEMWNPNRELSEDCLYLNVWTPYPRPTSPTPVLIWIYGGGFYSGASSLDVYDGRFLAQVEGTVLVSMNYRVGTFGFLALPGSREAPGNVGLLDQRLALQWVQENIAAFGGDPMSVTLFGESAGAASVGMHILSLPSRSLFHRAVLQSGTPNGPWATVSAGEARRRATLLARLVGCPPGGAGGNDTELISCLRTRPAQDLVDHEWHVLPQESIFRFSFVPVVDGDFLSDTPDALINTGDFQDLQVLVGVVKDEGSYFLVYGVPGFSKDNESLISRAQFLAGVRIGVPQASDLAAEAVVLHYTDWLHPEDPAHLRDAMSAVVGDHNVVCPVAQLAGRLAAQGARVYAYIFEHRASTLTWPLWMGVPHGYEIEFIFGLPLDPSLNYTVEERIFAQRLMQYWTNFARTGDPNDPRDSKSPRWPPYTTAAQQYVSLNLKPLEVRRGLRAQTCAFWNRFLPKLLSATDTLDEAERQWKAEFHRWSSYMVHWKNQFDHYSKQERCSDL
Description: In Vitro Inhibition of Acetylcholinesterase Activity in Rat Striatum (modified Ellman method). The format is biochemical. To be noted: rat striatum homogenate, read-out: % Inhibition @ Dose. From the text: Cholinesterases are found throughout the body, both in the brain and in serum. However, only brain acetylcholinesterase (AChE) distribution is correlated with central cholinergic innervation. […] We have determined in vitro inhibition of acetylcholinesterase activity in rat striatum according to the method described below.
In Vitro Inhibition of Acetylcholinesterase Activity in Rat Striatum
Acetylcholinesterase (AChE), which is sometimes called true or specific cholinesterase, is found in nerve cells, skeletal muscle, smooth muscle, various glands and red blood cells. AChE may be distinguished from other cholinesterases by substrate and inhibitor specificities and by regional distribution.
It is generally accepted that the physiological role of AChE is the rapid hydrolysis and inactivation of acetylcholine. […]
• A. Reagents- • 1. […] If active, IC₅₀ values are determined from the inhibitory activity of subsequent concentrations. • B. Tissue Preparation - Male Wistar rats are decapitated, brains rapidly removed, corpora striata dissected free, weighed and homogenized in 19 volumes (approximately 7 mg protein/ml) of 0.05 M phosphate buffer, pH 7.2, using a Potter-Elvehjem homogenizer. […] Assay Enzyme activity is measured with the Beckman DU-50 spectrophotometer. […] This program also calculates the rate of absorbance change for each cuvette. […]
Background: Ellman's reagent forms a yellow product with free thiols.

Take `CCCC(c1ccncc1)n1ccc2ccccc21` (stereo not shown) [1-[1-(4-pyridinyl)-butyl]-1H-indole, 1-[1-(4-Pyridinyl)butyl]-1H-indole]: the “% of Animals with Scopolamine-Induced Memory Deficit Reversal” value (shortened to “% of Animals”) in the assay with mice (dose 0.3 mg/kg of body weight) is reported as 20%.
On to `CC[C@@H]1C(=O)OC[C@@H]1Cc1cncn1C` [Pilocarpine], for which the “% of Animals” value with mice (dose 5.0 mg/kg of body weight) was found to be 13%.
For `Oc1ccc2c(ccn2Cc2ccncc2)c1` [1-(4-pyridinylmethyl)-1H-indol-5-ol, 1-(4-Pyridinylmethyl)-1H-indol-5-ol], in assay [1] (100 µM), the inhibition (in general, the drop in the measured response relative to a control, in per cent) at 100 µM stood at 24%.
Regarding `Nc1c2c(nc3ccccc13)CCCC2` [Tacrine], the “% of Animals” value with mice (dose 0.63 mg/kg of body weight) is 13%.
Take `c1ccc2c(c1)ccn2Cc1ccncc1` [1-(4-pyridinylmethyl)-1H-indole, 1-(4-Pyridinylmethyl)-1H-indole]: the entries for the “% of Animals” value in the assay with mice (dose 0.3 mg/kg of body weight) and in the assay with mice (dose 1.0 mg/kg of body weight) were 33% and 20%, respectively.
With `CN1CCC2(C)c3cc(O)ccc3N(C)C12` (stereo not shown) [Eseroline], the inhibition at 6.4 µM in assay [1] (6.4 µM) was found to be 50%.
